The subject of data set [1] is Staphylococcus epidermidis. Kind of data set: Antibacterial activity against Staphylococcus epidermidis 2D866 by two-fold agar dilution method. The data set is classed as functional.
In data set [2] the test system is Mycobacterium tuberculosis. Description: Antitubercular activity against Mycobacterium tuberculosis H37Rv by microplate alamar blue assay. The format is functional.
Data set [3] deals with Mycobacterium tuberculosis. Kind of data set: Antitubercular activity against Mycobacterium tuberculosis H37Rv ATCC 27294 after 28 days by two-fold agar dilution method. The note with it: H37Rv ATCC 27294, 672 h. The format is functional.
The nature of data set [4]: Cytotoxicity against mouse RAW264.7 cells assessed as growth inhibition at 50 ug/ml after 72 hrs by MTT assay. The data set is classed as cell-based. The following applies: read-out: GI.

MIC and inhibition data for 21 molecules are collected here from ChEMBL document CHEMBL3822378, “Click-based synthesis and antitubercular evaluation of dibenzofuran tethered thiazolyl-1,2,3-triazolyl acetamides” (Bioorg Med Chem Lett, 2016).

Each structure is given as a SMILES string. Converted amounts (≈) assume the structure as drawn. Where only a bound is given, the exact number is not on record here.

Take `CCCCCC(=O)c1c(OC)c(Cl)c2oc3c(Cl)c(OC)c(Cl)c(O)c3c2c1O`: it took 0.39 µg/mL (≈ 0.845 µM) to inhibit growth in data set [1] (MIC).

As to `CC(=O)C1=C(O)C=C2Oc3c(C(C)=O)c(O)c(C)c(O)c3C2(C)C1=O` (stereo not drawn), 12.5 µg/mL (≈ 36.3 µM) was the least that counted as inhibitory in data set [2] (MIC). `O=C(Cn1cc(C2(O)CCCC2)nn1)Nc1nc(-c2ccc3oc4ccccc4c3c2)cs1`: inhibition of growth in data set [3] (MIC) required 12.5 µg/mL (≈ 27.2 µM). In addition, the inhibition at 72 h, 50 ug/ml in data set [4] stood at 22.2%. Turning to `Cc1ccc(-c2cn(CC(=O)Nc3nc(-c4ccc5oc6ccccc6c5c4)cs3)nn2)cc1`, the MIC in data set [3] amounted to 50 µg/mL (≈ 107 µM). `O=C(Cn1cc(-c2cc(C(F)(F)F)cc(C(F)(F)F)c2)nn1)Nc1nc(-c2ccc3oc4ccccc4c3c2)cs1` displayed an MIC in data set [3] of 25 µg/mL (≈ 42.6 µM). Take `CCCCCc1ccc(-c2cn(CC(=O)Nc3nc(-c4ccc5oc6ccccc6c5c4)cs3)nn2)cc1`: the MIC in data set [3] is more than 50 µg/mL. In turn, `O=C(Cn1cc(CCc2ccccc2)nn1)Nc1nc(-c2ccc3oc4ccccc4c3c2)cs1` came in with a minimum inhibitory concentration (MIC) in data set [3] of more than 50 µg/mL.

For the molecule `O=C(Cn1cc(-c2ccccc2)nn1)Nc1nc(-c2ccc3oc4ccccc4c3c2)cs1`, in data set [3], the MIC was determined as 3.12 µg/mL (≈ 6.91 µM). In data set [4], the inhibition at 72 h, 50 ug/ml was determined as 20.4%. Consider `CCCc1cn(CC(=O)Nc2nc(-c3ccc4oc5ccccc5c4c3)cs2)nn1`, for which the MIC in data set [3] is 50 µg/mL (≈ 120 µM). As for `COc1cccc(-c2cn(CC(=O)Nc3nc(-c4ccc5oc6ccccc6c5c4)cs3)nn2)c1`, in data set [3], the MIC was 6.25 µg/mL (≈ 13 µM). Besides, in data set [4], the inhibition at 72 h, 50 ug/ml was found to be 18.1%. On to `O=C(Cn1cc(-c2ccc(F)cc2F)nn1)Nc1nc(-c2ccc3oc4ccccc4c3c2)cs1`, for which, in data set [3], the MIC worked out at 25 µg/mL (≈ 51.3 µM).

Regarding `CCCCCCc1cn(CC(=O)Nc2nc(-c3ccc4oc5ccccc5c4c3)cs2)nn1`, in data set [3], the minimal inhibitory concentration (MIC) was found to be 1.56 µg/mL (≈ 3.39 µM). Also, the inhibition at 72 h, 50 ug/ml in data set [4] was determined as 28.6%.

In turn, `O=C(Cn1cc(C2CC2)nn1)Nc1nc(-c2ccc3oc4ccccc4c3c2)cs1` came in with a minimum inhibitory concentration (MIC) in data set [3] of 50 µg/mL (≈ 120 µM). In data set [3], `CC(C)(C)c1ccc(-c2cn(CC(=O)Nc3nc(-c4ccc5oc6ccccc6c5c4)cs3)nn2)cc1` displayed a minimum inhibitory concentration (MIC) of 12.5 µg/mL (≈ 24.6 µM). Moreover, the inhibition at 72 h, 50 ug/ml in data set [4] is 30.2%. `CCCCCCCCCCCCc1cn(CC(=O)Nc2nc(-c3ccc4oc5ccccc5c4c3)cs2)nn1` returned an MIC in data set [3] of 3.12 µg/mL (≈ 5.74 µM). Further, the inhibition at 72 h, 50 ug/ml in data set [4] came out at 26.5%. The molecule `O=C(Cn1cc(CCCO)nn1)Nc1nc(-c2ccc3oc4ccccc4c3c2)cs1` came in with a minimal inhibitory concentration (MIC) in data set [3] of 25 µg/mL (≈ 57.7 µM). Still for that read-out and setting: for `O=C(Cn1cc(-c2ccc(-c3ccccc3)cc2)nn1)Nc1nc(-c2ccc3oc4ccccc4c3c2)cs1` the value was more than 50 µg/mL. Turning to `CCCCCc1cn(CC(=O)Nc2nc(-c3ccc4oc5ccccc5c4c3)cs2)nn1`, the MIC in data set [3] is 12.5 µg/mL (≈ 28.1 µM). The inhibition at 72 h, 50 ug/ml in data set [4] was determined as 20.4%.

For `CC[C@@H](CO)NCCN[C@@H](CC)CO` [ETHAMBUTOL], the minimum inhibitory concentration (MIC) in data set [3] came out at 3.13 µg/mL (≈ 15.3 µM). As to `NNC(=O)c1ccncc1` [ISONIAZID], the MIC in data set [3] was 0.1 µg/mL (≈ 0.729 µM). Molecule `NC(=O)c1cnccn1` [PYRAZINAMIDE] registered a minimum inhibitory concentration (MIC) in data set [3] of 50 µg/mL (≈ 406 µM).
